Data from US20250154169A1, “COMPOUNDS AND METHODS FOR MODULATING SPLICING” (REMIX THERAPEUTICS INC., priority 2021, published 2025).
Structures can show the parent of a compound that is named as a salt. Where two headings read alike, the source gives them in different places.

Experiments:
Format in all cases: cell-based, human
[1] = system: Target C mRNA; assay: Splicing RT-qPCR gene panel, Target C canonical junction (CJ) mRNA; conditions: Homo sapiens, Tables 4A/4B, read-out: Target C (IC50, decrease in CJ mRNA, gene panel)
Outline: (§1)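 A673 or K562 cells were treated 24 h at 37 °C with an 11-point 3-fold dilution series (top 10 uM, ≤0.25% DMSO). Canonical-junction mRNA was measured in lysates by one-step RT-qPCR, normalized to GAPDH, GUSB or PPIA and DMSO control (2^(−ΔΔCt)), expressed as percentage response.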

[2] = system: SMN2 mRNA; assay: Splicing RT-qPCR gene panel, SMN2 canonical junction (CJ) mRNA; conditions: Homo sapiens, Tables 4A/4B, read-out: SMN2 (IC50, decrease in CJ mRNA, gene panel)
Outline: as §1

[3] = system: HTT mRNA; assay: Splicing RT-qPCR gene panel, HTT canonical junction (CJ) mRNA; conditions: Homo sapiens, Tables 4A/4B, read-out: HTT (IC50, decrease in CJ mRNA, gene panel)
Outline: as §1

[4] = system: MYB mRNA; assay: Splicing RT-qPCR assay, MYB canonical (CJ) and alternative (AJ) junction mRNA; conditions: Homo sapiens
Outline: (§2)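 Read-out is the abundance of canonical-junction versus new alternative-exon-junction mRNA, determined by real-time qPCR after cDNA synthesis and normalized to a housekeeping gene. It is measured in A673 or K562 cells exposed to compounds for 24 h, top dose 10 uM.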

[5] = system: HTT mRNA; assay: Splicing RT-qPCR assay, HTT canonical (CJ) and alternative (AJ) junction mRNA; conditions: Homo sapiens
Outline: as §2

[6] = Tables 4A/4B, canonical junction qPCR panel, read-out: MYB (IC50, decrease in CJ mRNA, gene panel)
[7] = 24 h, A673 or K562 cells, 24 hours compound treatment, RT-qPCR, read-out: MYB AJ (AC50, increase in alternative junction mRNA)
[8] = 24 h, A673 or K562 cells, 24 hours compound treatment, RT-qPCR, read-out: MYB CJ (IC50, decrease in canonical junction mRNA)
[9] = 24 h, A673 or K562 cells, 24 hours compound treatment, read-out: HTT CJ (IC50, decrease in canonical junction mRNA)
[10] = A673 or K562 cells, 24 hours compound treatment, read-out: HTT AJ (AC50, increase in alternative junction mRNA)

| IC50 [1] [nM] | IC50 [2] [nM] | IC50 [3] [nM] | IC50 ([4]; Table 3B, canonical junction mRNA, RT-qPCR, read-out: MYB CJ (IC50, decrease in CJ mRNA)) [nM] | IC50 [4, 6] [nM] | IC50 ([5]; Table 3B, canonical junction mRNA, read-out: HTT CJ (IC50, decrease in CJ mRNA)) [nM] | IC50 [4, 8] [nM] | IC50 [5, 9] [nM] | Structure (SMILES) | AC50 ([4]; Table 3B, alternative junction mRNA, RT-qPCR, read-out: MYB AJ (AC50, increase in AJ mRNA)) [nM] | AC50 ([5]; Table 3B, alternative junction mRNA, read-out: HTT AJ (AC50, increase in AJ mRNA)) [nM] | AC50 [4, 7] [nM] | AC50 [5, 10] [nM] |
| --- | --- | --- | --- | --- | --- | --- | --- | --- | --- | --- | --- | --- |
| > 10000 | 100 to 1000 | > 10000 | 1000 to 10000 | 1000 to 10000 | > 10000 |  |  | Cc1cn2cc(NC(=O)c3ncc(N4CCNCC4)c4cn(C)nc34)cc(F)c2n1 [Compound 932] | 1000 to 10000 | > 10000 |  |  |
| > 10000 | < 100 | 1000 to 10000 |  | 100 to 1000 |  | 100 to 1000 | 1000 to 10000 | Cc1cn2cc(NC(=O)c3ccc(N4CCNCC4)c4cn(C)nc34)cc(C(F)(F)F)c2n1 [Compound 275, 2-methyl-N-[2-methyl-8-(trifluoromethyl)imidazo[1,2-a]pyridin-6-yl]-4-(piperazin-1-yl) indazole-7-carboxamide] |  |  | < 100 | 1000 to 10000 |
| > 10000 | < 100 | 1000 to 10000 |  | < 100 |  | < 100 | 1000 to 10000 | CCNC1CCN(c2ccc(C(=O)Nc3cc(F)c4nc(C)cn4c3)c3nn(CCOC)cc23)C1 (centres unmarked) [Compound 310, 4-(3-(ethylamino)pyrrolidin-1-yl)-N-(8-fluoro-2-methylimidazo[1,2-a]pyridin-6-yl)-2-(2-methoxyethyl)-2H-indazole-7-carboxamide] |  |  | < 100 | 1000 to 10000 |
| > 10000 | 100 to 1000 | > 10000 |  | 100 to 1000 |  | 100 to 1000 | > 10000 | Cc1cn2cc(NC(=O)c3ccc(N4CCC(CN)C4)c4cn(C)nc34)cc(F)c2n1 (centres unmarked) [Compound 327, 4-[3-(aminomethyl)pyrrolidin-1-yl]-N-{8-fluoro-2-methylimidazo[1,2-a]pyridin-6-yl}-2-methylindazole-7-carboxamide] |  |  | 100 to 1000 | > 10000 |
| > 10000 | > 10000 | > 10000 |  | > 10000 |  | > 10000 | > 10000 | Cc1cn2nc(NC(=O)c3ccc(N4CCNCC4)c4cn(C)nc34)cc2c(C)n1 [Compound 247] |  |  | > 10000 | > 10000 |
| > 10000 | < 100 | 1000 to 10000 |  | < 100 |  | < 100 | 1000 to 10000 | Cc1cn2cc(NC(=O)c3ccc(N4CCNCC4)c4cn(C)nc34)cc(C#N)c2n1 [Compound 314, N-{8-cyano-2-methylimidazo[1,2-a]pyridin-6-yl}-2-methyl-4-(piperazin-1-yl) indazole-7-carboxamide hydrochloride] |  |  | < 100 | 1000 to 10000 |
| 1000 to 10000 | < 100 | 1000 to 10000 |  | 100 to 1000 |  | 100 to 1000 | 1000 to 10000 | Cc1cn2cc(NC(=O)c3ccc(N4CCNCC4)c4cc(C)oc34)ncc2n1 [Compound 263] |  |  | 100 to 1000 | 1000 to 10000 |
| > 10000 | 100 to 1000 | > 10000 |  | 1000 to 10000 |  | 1000 to 10000 | > 10000 | Cc1cn2cc(NC(=O)c3ccc(C4CC(C)(C)NC(C)(C)C4)c4cc(C)oc34)cc(F)c2n1 [Compound 271] |  |  | 1000 to 10000 | > 10000 |
| > 10000 | < 100 | 1000 to 10000 |  | 100 to 1000 |  | 100 to 1000 | 1000 to 10000 | Cc1cn2cc(NC(=O)c3ccc(N4CCNCC4)c4cn(C5CCOCC5)nc34)cc(F)c2n1 [Compound 304, N-{8-fluoro-2-methylimidazo[1,2-a]pyridin-6-yl}-2-(oxan-4-yl)-4-(piperazin-1-yl) indazole-7-carboxamide trifluoroacetic acid salt] |  |  | 100 to 1000 | > 10000 |
| 1000 to 10000 | < 100 | 1000 to 10000 |  | < 100 |  | < 100 | 1000 to 10000 | Cc1cn2cc(NC(=O)c3ccc(N4CCC(N(C)C)C4)c4cn(C)nc34)cc(F)c2n1 (centres unmarked) [Compound 258] |  |  | < 100 | 100 to 1000 |
